Assay results: the NIST ThermoML archive (doi:10.1021/je800110r)
Numbers after ± are expanded uncertainties.

Conditions: 303.15 K, Liquid, Vibrating tube method

In the case of `CCCCCCCCCC` [decane], the mass density (29181 kPa) is reported as 743.5 ± 2.1 kg/m3, the mass density (29208 kPa) is reported as 743.5 ± 2.1 kg/m3 and the mass density (29234 kPa) is reported as 743.6 ± 2.1 kg/m3. The mass density (29258 kPa) was 743.5 ± 2.1 kg/m3, the mass density (29278 kPa) was 743.6 ± 2.1 kg/m3 and the mass density (29302 kPa) was 743.6 ± 2.1 kg/m3. The mass density (29320 kPa) was 743.5 ± 2.1 kg/m3, the mass density (29341 kPa) was 743.6 ± 2.1 kg/m3 and the mass density (29363 kPa) was 743.6 ± 2.1 kg/m3. It also gave a mass density (29384 kPa) of 743.6 ± 2.1 kg/m3, a mass density (29402 kPa) of 743.6 ± 2.1 kg/m3 and a mass density (29426 kPa) of 743.6 ± 2.1 kg/m3. The mass density (29444 kPa) was 743.7 ± 2.1 kg/m3, the mass density (29466 kPa) was 743.6 ± 2.1 kg/m3 and the mass density (29484 kPa) was 743.7 ± 2.1 kg/m3. For the same compound, the mass density (29502 kPa) was 743.7 ± 2.1 kg/m3, the mass density (29530 kPa) was 743.8 ± 2.1 kg/m3 and the mass density (29548 kPa) was 743.7 ± 2.1 kg/m3. The mass density (29575 kPa) was 743.7 ± 2.1 kg/m3, the mass density (29600 kPa) was 743.7 ± 2.1 kg/m3 and the mass density (29618 kPa) was 743.8 ± 2.1 kg/m3. For the same compound, the mass density (29640 kPa) was 743.8 ± 2.1 kg/m3, the mass density (29658 kPa) was 743.8 ± 2.1 kg/m3 and the mass density (29685 kPa) was 743.9 ± 2.1 kg/m3. The mass density (29703 kPa) was 743.8 ± 2.1 kg/m3, the mass density (29722 kPa) was 743.9 ± 2.1 kg/m3 and the mass density (29747 kPa) was 743.9 ± 2.1 kg/m3. The mass density (29774 kPa) was 743.9 ± 2.1 kg/m3, the mass density (29790 kPa) was 743.8 ± 2.1 kg/m3 and the mass density (29812 kPa) was 743.8 ± 2.1 kg/m3. The mass density (29828 kPa) was 744 ± 2.1 kg/m3, the mass density (29859 kPa) was 743.9 ± 2.1 kg/m3 and the mass density (29883 kPa) was 744 ± 2.1 kg/m3. It also gave a mass density (29905 kPa) of 744 ± 2.1 kg/m3, a mass density (29930 kPa) of 743.9 ± 2.1 kg/m3 and a mass density (29952 kPa) of 744 ± 2.1 kg/m3. It also gave a mass density (29967 kPa) of 744 ± 2.1 kg/m3, a mass density (29987 kPa) of 743.9 ± 2.1 kg/m3 and a mass density (30005 kPa) of 744 ± 2.1 kg/m3. For the same compound, the mass density (30023 kPa) was 744.1 ± 2.1 kg/m3, the mass density (30051 kPa) was 743.9 ± 2.1 kg/m3 and the mass density (30077 kPa) was 744.1 ± 2.1 kg/m3. For the same compound, the mass density (30099 kPa) was 744 ± 2.1 kg/m3, the mass density (30125 kPa) was 744 ± 2.1 kg/m3 and the mass density (30150 kPa) was 744.2 ± 2.1 kg/m3. For the same compound, the mass density (30169 kPa) was 744.1 ± 2.1 kg/m3, the mass density (30198 kPa) was 744.2 ± 2.1 kg/m3 and the mass density (30220 kPa) was 744.1 ± 2.1 kg/m3. For the same compound, the mass density (30248 kPa) was 744.2 ± 2.1 kg/m3, the mass density (30267 kPa) was 744.2 ± 2.1 kg/m3 and the mass density (30290 kPa) was 744.2 ± 2.1 kg/m3. For the same compound, the mass density (30322 kPa) was 744.2 ± 2.1 kg/m3, the mass density (30348 kPa) was 744.3 ± 2.1 kg/m3 and the mass density (30374 kPa) was 744.3 ± 2.1 kg/m3. For the same compound, the mass density (30397 kPa) was 744.2 ± 2.1 kg/m3, the mass density (30420 kPa) was 744.3 ± 2.1 kg/m3 and the mass density (30443 kPa) was 744.3 ± 2.1 kg/m3. For the same compound, the mass density (30468 kPa) was 744.4 ± 2.1 kg/m3, the mass density (30491 kPa) was 744.4 ± 2.1 kg/m3 and the mass density (30516 kPa) was 744.3 ± 2.1 kg/m3. For the same compound, the mass density (30533 kPa) was 744.4 ± 2.1 kg/m3, the mass density (30553 kPa) was 744.4 ± 2.1 kg/m3 and the mass density (30582 kPa) was 744.3 ± 2.1 kg/m3. For the same compound, the mass density (30601 kPa) was 744.5 ± 2.1 kg/m3, the mass density (30621 kPa) was 744.4 ± 2.1 kg/m3 and the mass density (30644 kPa) was 744.5 ± 2.1 kg/m3. The mass density (30665 kPa) was 744.4 ± 2.1 kg/m3, the mass density (30695 kPa) was 744.5 ± 2.1 kg/m3 and the mass density (30715 kPa) was 744.3 ± 2.1 kg/m3. It also gave a mass density (30739 kPa) of 744.4 ± 2.1 kg/m3, a mass density (30762 kPa) of 744.5 ± 2.1 kg/m3 and a mass density (30789 kPa) of 744.7 ± 2.1 kg/m3. It also gave a mass density (30809 kPa) of 744.5 ± 2.1 kg/m3, a mass density (30833 kPa) of 744.5 ± 2.1 kg/m3 and a mass density (30853 kPa) of 744.7 ± 2.1 kg/m3. For the same compound, the mass density (30884 kPa) was 744.6 ± 2.1 kg/m3, the mass density (30908 kPa) was 744.6 ± 2.1 kg/m3 and the mass density (30931 kPa) was 744.6 ± 2.1 kg/m3. The mass density (30956 kPa) was 744.5 ± 2.1 kg/m3, the mass density (30980 kPa) was 744.6 ± 2.1 kg/m3 and the mass density (31007 kPa) was 744.6 ± 2.1 kg/m3. For the same compound, the mass density (31031 kPa) was 744.6 ± 2.1 kg/m3, the mass density (31062 kPa) was 744.8 ± 2.1 kg/m3 and the mass density (31083 kPa) was 744.7 ± 2.1 kg/m3. For the same compound, the mass density (31111 kPa) was 744.7 ± 2.1 kg/m3, the mass density (31134 kPa) was 744.6 ± 2.1 kg/m3 and the mass density (31157 kPa) was 744.7 ± 2.1 kg/m3. For the same compound, the mass density (31178 kPa) was 744.8 ± 2.1 kg/m3, the mass density (31212 kPa) was 744.7 ± 2.1 kg/m3 and the mass density (31231 kPa) was 744.8 ± 2.1 kg/m3. It also gave a mass density (31252 kPa) of 744.9 ± 2.1 kg/m3, a mass density (31271 kPa) of 744.8 ± 2.1 kg/m3 and a mass density (31293 kPa) of 744.9 ± 2.1 kg/m3. For the same compound, the mass density (31311 kPa) was 744.9 ± 2.1 kg/m3, the mass density (31327 kPa) was 744.8 ± 2.1 kg/m3 and the mass density (31348 kPa) was 744.9 ± 2.1 kg/m3. It also gave a mass density (31363 kPa) of 744.9 ± 2.1 kg/m3, a mass density (31381 kPa) of 744.9 ± 2.1 kg/m3 and a mass density (31400 kPa) of 744.9 ± 2.1 kg/m3. The mass density (31425 kPa) was 744.9 ± 2.1 kg/m3, the mass density (31446 kPa) was 745 ± 2.1 kg/m3 and the mass density (31468 kPa) was 745 ± 2.1 kg/m3. For the same compound, the mass density (31490 kPa) was 744.9 ± 2.1 kg/m3, the mass density (31515 kPa) was 744.9 ± 2.1 kg/m3 and the mass density (31540 kPa) was 745 ± 2.1 kg/m3. For the same compound, the mass density (31565 kPa) was 745 ± 2.1 kg/m3, the mass density (31588 kPa) was 745 ± 2.1 kg/m3 and the mass density (31610 kPa) was 745.1 ± 2.1 kg/m3. For the same compound, the mass density (31640 kPa) was 745.2 ± 2.1 kg/m3, the mass density (31660 kPa) was 745.1 ± 2.1 kg/m3 and the mass density (31688 kPa) was 745.1 ± 2.1 kg/m3. The mass density (31707 kPa) was 745.2 ± 2.1 kg/m3, the mass density (31725 kPa) was 745.2 ± 2.1 kg/m3 and the mass density (31754 kPa) was 745.1 ± 2.1 kg/m3. It also gave a mass density (31769 kPa) of 745.2 ± 2.1 kg/m3, a mass density (31798 kPa) of 745.1 ± 2.1 kg/m3 and a mass density (31817 kPa) of 745.2 ± 2.1 kg/m3. The mass density (31842 kPa) was 745.2 ± 2.1 kg/m3, the mass density (31861 kPa) was 745.1 ± 2.1 kg/m3 and the mass density (31887 kPa) was 745.1 ± 2.1 kg/m3. The mass density (31906 kPa) was 745.3 ± 2.1 kg/m3, the mass density (31925 kPa) was 745.3 ± 2.1 kg/m3 and the mass density (31950 kPa) was 745.3 ± 2.1 kg/m3. The mass density (31972 kPa) was 745.3 ± 2.1 kg/m3, the mass density (31995 kPa) was 745.3 ± 2.1 kg/m3 and the mass density (32014 kPa) was 745.3 ± 2.1 kg/m3. It also gave a mass density (32040 kPa) of 745.4 ± 2.1 kg/m3, a mass density (32059 kPa) of 745.4 ± 2.1 kg/m3 and a mass density (32079 kPa) of 745.4 ± 2.1 kg/m3. It also gave a mass density (32098 kPa) of 745.3 ± 2.1 kg/m3, a mass density (32128 kPa) of 745.3 ± 2.1 kg/m3 and a mass density (32150 kPa) of 745.4 ± 2.1 kg/m3. For the same compound, the mass density (32176 kPa) was 745.3 ± 2.1 kg/m3, the mass density (32198 kPa) was 745.5 ± 2.1 kg/m3 and the mass density (32228 kPa) was 745.4 ± 2.1 kg/m3. For the same compound, the mass density (32251 kPa) was 745.4 ± 2.1 kg/m3 and the mass density (32274 kPa) was 745.5 ± 2.1 kg/m3.
